Results reported in patent US9096492B2, “Hydrated N-fullerene amino acids, method for producing the latter, and pharmaceutical compositions on the basis thereof” (priority 2011, dated 2015).
Several values for one entry are separate records, joined by “and”; a condition that tells them apart may be missing. Identical values can stand only once. Like-named read-outs stand apart in the source and are kept apart here.

Experiments:
[1] = tested on: ascites Ehrlich carcinoma cells; assay: Apoptosis in ascites Ehrlich carcinoma cells of treated mice (cytofluorimetric analysis); format: in vivo
solid Ehrlich carcinoma = assay: Solid Ehrlich carcinoma in white mice, tumor size dynamics; settings: Cisplatin 5 mg/kg once
[2] = tested on: Ehrlich ascites carcinoma; assay: Ehrlich ascites carcinoma in white mice, body weight dynamics
[3] = tested on: A/Swine/1976/31 (H1N1) influenza virus; format: in vivo, mice; settings: Tamiflu 20 mg/kg; for Infectious virus titer (log10EID50/20 mg tissue): lung tissue
[4] = tested on: HIV, HSV, and influenza virus; assay: Antiviral activity of the Example 3 compound; settings: against HIV
Excerpt: The antiviral activity of the compound was studied against HIV, HSV, and influenza virus; its antitumor activity was also studied. The compound has high antitumor and antiviral activities against all of the aforementioned viruses. Preferred example embodiments of the invention are given below.

[5] = Antitumor activity of the Example 3 compound
[6] = Solubility of the isolated product
[7] = ascites cells having large sizes and granularity (tumor cells)
[8] = ascites cells of moderate size and granularity

## N.N.[Cl][Pt][Cl] [Cisplatin, reference compound]
[1]; [7]
  AnV^+ 7AAD^+ (late apoptosis): 72.8 ± 10.9%
  AnV^+ 7AAD^− (early apoptosis): 0.3 ± 0.3%
  AnV^−7AAD^+ (necrosis): 26.6% and 26.6 ± 11.1%
  AnV^−7AAD^− (living cells): 0.4 ± 0.2%
[1]; [8]
  Percent amount of cells with the phenotype AnV^+ 7AAD^+ (late apoptosis): 3.5 ± 2.4%
  Percent amount of cells with the phenotype AnV^+ 7AAD^− early apoptosis: 41.1 ± 11.3%
  Percent amount of cells with the phenotype AnV^−7AAD^+ (necrosis): 0.1 ± 0.2%
  Percent amount of cells with the phenotype AnV^−7AAD^− (living cells): 55.2 ± 11.0%
Solid Ehrlich carcinoma; day 8 post transplantation
  Tumor size (mm^3): 56.5 mm^3
Solid Ehrlich carcinoma; day 13 post transplantation
  Tumor size (mm^3): 249.2 mm^3
Solid Ehrlich carcinoma; day 17 post transplantation
  Tumor size (mm^3): 464.3 mm^3
Solid Ehrlich carcinoma; day 21 post transplantation
  Tumor size (mm^3): 1071.9 mm^3
Solid Ehrlich carcinoma; day 24 post transplantation
  Tumor size (mm^3): 1743.3 mm^3
Solid Ehrlich carcinoma; day 28 post transplantation
  Tumor size (mm^3): 1269.4 mm^3
[2]; day 1 post tumor transplantation
  Animal body weight: 19.1 ± 5 g
[2]; day 3 post tumor transplantation
  Animal body weight: 19.3 ± 2.7 g
[2]; day 5 post tumor transplantation
  Animal body weight: 19.4 ± 2.5 g
[2]; day 8 post tumor transplantation
  Animal body weight: 19.8 ± 2.2 g
[2]; day 10 post tumor transplantation
  Animal body weight: 20.7 ± 2.4 g
[2]; day 13 post tumor transplantation
  Animal body weight: 21.4 ± 1.5 g
[2]; day 15 post tumor transplantation
  Animal body weight: 21.8 ± 1.6 g

## CCOC(=O)C1=C[C@@H](OC(CC)CC)[C@H](NC(C)=O)[C@@H](N)C1.O=P(O)(O)O [Tamiflu, ethyl(3R,4R,5S)-4-acetamido-5-amino-3-(1-ethylpropoxy)-1-cyclohexene-1-carboxylate phosphate, reference compound]
[3]; Summary dose, n=26
  Average lifetime (LD): 12.2 days
  Increase in LD: 3.6 days
  Index of protection: 62.8
  Mortality rate, %: 26.9%
  Number of survivors: 19
[3]; the lower of the virus doses used, day 15
  Size of chronic post-influenza pneumonia sites (% of the total surface area of the lungs): 20 ± 5%
[3]; virus 1 LD50, n=13
  Average lifetime (LD): 13.5 days
  Increase in LD: 2.9 days
  Index of protection: 71.2
  Mortality rate, %: 15.4%
  Number of survivors: 11
[3]; virus 10 LD50, n=13
  Average lifetime (LD): 11.0 days
  Increase in LD: 4.4 days
  Index of protection: 58.6
  Mortality rate, %: 38.5%
  Number of survivors: 8
[3]; virus dose 1 LD50
  Infectious virus titer (log10EID50/20 mg tissue): 3.1 ± 0.1 log10EID50/20 mg tissue
[3]; virus dose 5 LD50
  Infectious virus titer (log10EID50/20 mg tissue): 3.8 ± 0.3 log10EID50/20 mg tissue

## N-fullerene tris(8-aminooctanoic acid hydrate) [Example 3]
[4]
  antiviral activity: high
[5]
  antitumor activity: high

## N-fullerene tris-ω-aminoenanthic acid) hydrate [Example 2]
[6]
  solubility in CH3CN:H2O (1:10): soluble
  solubility in DMF-H2O (1:100): soluble
  solubility in water: soluble
